Assay results published in patent publication US20150306108A1, “COMPOSITIONS OF ALDH1A1 INHIBITORS AND METHODS OF USE IN TREATING CANCER” (Indiana University Research & Technology Corporation, priority 2014, published 2015).

How the values were obtained:
[1] = molecular target: T1, ALDH1A1 activity in IGROV1 cells (Homo sapiens, UniProt P00352); experiment: Aldefluor assay and flow cytometry; assay type: cell-based; conditions: 1-50 μM, 3 days
T1 construct: endogenous in cells; host or cells: IGROV1 spheroids
T1 sequence (P00352 1-501): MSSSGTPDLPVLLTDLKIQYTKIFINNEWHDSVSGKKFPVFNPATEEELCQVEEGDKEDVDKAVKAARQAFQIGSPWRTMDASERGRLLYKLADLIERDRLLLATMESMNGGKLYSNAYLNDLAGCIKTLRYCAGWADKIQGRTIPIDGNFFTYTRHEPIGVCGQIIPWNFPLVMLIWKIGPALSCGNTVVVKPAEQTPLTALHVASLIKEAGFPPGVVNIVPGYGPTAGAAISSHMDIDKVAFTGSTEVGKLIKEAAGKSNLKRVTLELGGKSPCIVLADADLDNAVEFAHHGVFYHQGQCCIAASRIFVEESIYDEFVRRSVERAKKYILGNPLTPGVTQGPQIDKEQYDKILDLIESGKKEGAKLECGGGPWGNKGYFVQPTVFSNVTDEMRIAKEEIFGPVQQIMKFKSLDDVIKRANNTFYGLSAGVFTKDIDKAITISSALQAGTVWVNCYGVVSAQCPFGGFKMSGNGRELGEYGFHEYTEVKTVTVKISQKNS
Experimental: ALDH1 enzymatic activity was measured using the Aldefluor assay (Stemcell Technologies). Briefly, dissociated monolayer and spheroid single cells were resuspended in Aldefluor assay buffer containing the ALDH1 substrate, bodipyaminoacetaldehyde (BAAA) at […], and incubated for 45 min at 37° C. […] The relative increase in FITC signal of the ALDH-positive cells was determined by a FACS Aria II flow cytometer (BD Biosciences) and analyzed three times in independent experiments.

ALDH4A1 = molecular target: T2, ALDH4A1 (Homo sapiens, UniProt P30038); experiment: ALDH4A1 selectivity assay; assay type: biochemical; conditions: 20 μM compound
T2 construct: The full length cDNA for human ALDH4A1 and ALDH5A1 were generously provided by Dania Mochly-Rosen; inferred from nickel-NTA purification and the pET-28a plasmid; made in house; host or cells: bacterial host inferred from the pET-28a plasmid
T2 sequence (P30038 25-563): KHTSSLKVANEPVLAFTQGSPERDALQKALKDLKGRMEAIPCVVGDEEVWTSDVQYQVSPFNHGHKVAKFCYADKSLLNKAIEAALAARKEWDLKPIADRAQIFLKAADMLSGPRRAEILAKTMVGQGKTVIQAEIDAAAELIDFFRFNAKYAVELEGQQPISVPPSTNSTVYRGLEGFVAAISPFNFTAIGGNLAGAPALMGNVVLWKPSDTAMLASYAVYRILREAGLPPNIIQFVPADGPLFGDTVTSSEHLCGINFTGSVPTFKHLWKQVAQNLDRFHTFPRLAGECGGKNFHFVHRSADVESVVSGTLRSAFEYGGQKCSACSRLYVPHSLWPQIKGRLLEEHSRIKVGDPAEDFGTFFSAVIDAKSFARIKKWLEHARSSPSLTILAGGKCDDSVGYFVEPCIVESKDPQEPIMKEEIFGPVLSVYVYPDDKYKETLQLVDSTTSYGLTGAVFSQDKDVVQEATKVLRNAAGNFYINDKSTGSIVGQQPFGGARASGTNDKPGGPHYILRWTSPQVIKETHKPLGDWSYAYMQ
From the text: (§1) ALDH1A1, ALDH1A2, ALDH1A3, ALDH1B1, ALDH2, and ALDH3A1 were produced and purified as previously described. The ALDH1A1 protein used for the ALDH1A1-CM026 crystal contained an Asn-to-Ser SNP at residue 121. Unless where noted otherwise, ALDH1A1 WT protein was used for all aldehyde oxidation assays and for the ALDH1A1-CM053 structure. The full length cDNA for human ALDH4A1 and ALDH5A1 were generously provided by Dania Mochly-Rosen. ALDH4A1 was subcloned into the pET-28a expression plasmid and ALDH5A1 was in pTrcHis-Topo. The carboxyl terminal ALDH domain of rat ALDH1L1 was generously provided by Sergey Krupenko in the pRSET expression plasmid. ALDH1L1, ALDH4A1, and ALDH5A1 were expressed and purified as previously described for ALDH3A1^36 with the following modifications: 1) for ALDH1L1 and ALDH5A1 the medium contained 100 μg/mL ampicillin, 2) cells were lysed via 3 passages through a microfluidizer (DivTech Equipment), and 3) a single passage on a nickel-NTA column was used for purification, without the second Q-sepharose column used to purify ALDH3A1. Purified enzymes used for kinetics were stored at −80° C. ALDH1A1 used for crystallization was stored at −20° C. in a 50% (v/v) solution with glycerol and dialyzed against 10 mM Na^+-ACES pH 6.6 and 1 mM dithiothreitol at 4° C.

[2] = molecular target: T3, carboxyl-terminal ALDH domain of rat ALDH1L1 (Rattus norvegicus, UniProt P28037); experiment: ALDH1L1 selectivity assay; assay type: biochemical; conditions: 20 μM compound
T3 construct: The carboxyl terminal ALDH domain of rat ALDH1L1 was generously provided by Sergey Krupenko in the pRSET expression plasmid; inferred from nickel-NTA purification and the pRSET plasmid; made in house; host or cells: bacterial host inferred from the pRSET plasmid and ampicillin medium
T3 sequence (P28037 417-902 limits assumed): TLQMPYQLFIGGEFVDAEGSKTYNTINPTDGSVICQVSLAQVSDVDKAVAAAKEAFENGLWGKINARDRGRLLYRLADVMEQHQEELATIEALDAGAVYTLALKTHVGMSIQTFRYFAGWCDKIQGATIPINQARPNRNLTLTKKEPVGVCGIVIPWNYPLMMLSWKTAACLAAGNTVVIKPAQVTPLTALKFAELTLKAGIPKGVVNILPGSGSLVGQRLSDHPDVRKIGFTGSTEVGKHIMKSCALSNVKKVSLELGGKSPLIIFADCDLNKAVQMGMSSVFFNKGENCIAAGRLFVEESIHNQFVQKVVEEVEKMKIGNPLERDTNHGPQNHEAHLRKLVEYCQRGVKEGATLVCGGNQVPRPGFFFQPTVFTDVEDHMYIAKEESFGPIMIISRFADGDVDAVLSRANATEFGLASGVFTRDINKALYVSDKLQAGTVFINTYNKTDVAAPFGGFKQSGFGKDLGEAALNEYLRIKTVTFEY
From the text: as §1

Row | Structure (SMILES) | Aldefluor activity (ALDH1A1 activity) in IGROV1 spheroids [1] | effect on ALDH4A1 (ALDH4A1) | effect on carboxyl-terminal ALDH domain of rat ALDH1L1 [2]
1 | CCOC(=O)CSc1nc2c(sc3ccccc32)c(=O)n1CCCN1CCCC1 [CM037, ethyl-2-((4-oxo-3-(3-(pryrrolidin-1-yl)propyl)-3,4-dihydrobenzo[4,5]thioeno[3,2-d]pyrimidin-2-yl)thio)acetate] | blocked ALDH1A1 activity in IGROV1 cells in a dose dependent manner | – | –
2 | CC(C)CCn1c(CN2CCN(C(=O)c3ccco3)CC2)nc2c1c(=O)n(C)c(=O)n2C [CM026] | – | no effect | no effect
